Patent US4563472A, “Iodoallyl and iodopropargyl substituted tetrazoles and anti-microbial compositions thereof” (Meiji Seika Kaisha, Ltd., priority 1982, dated 1986)
Converted amounts (≈) assume the structure as drawn. Like-named read-outs stand apart in the source and are kept apart here.

How the values were obtained:
[1] = system: Candida alubicans GA-24; test: Antifungal Activity (in Medicinal Field), MIC; assay type: cell-based
[2] = system: Trichophyton interdigitale; test: Antifungal Activity (in Medicinal Field), MIC; assay type: cell-based; conditions: read-out: Minimal Inhibitory Conc. (MIC)
[3] = system: Cladosporium herbarum IAM F-517; test: Antifungal Activity (in Industrial Field), MIC; assay type: cell-based; conditions: IAMF517, read-out: Minimal Inhibitory Conc. (MIC)
[4] = system: Mucor spinescens IAM Mu3; test: Antifungal Activity (in Industrial Field), MIC; assay type: cell-based; conditions: IAMMU3, read-out: Minimal Inhibitory Conc. (MIC)
[5] = system: Chaetomium globosum ATCC 6205; test: Antifungal Activity (in Industrial Field), MIC; assay type: cell-based; conditions: ATCC6205, read-out: Minimal Inhibitory Conc. (MIC)
[6] = system: Trichophyton metagrophytes 530324; test: Antifungal Activity (in Medicinal Field), MIC; assay type: cell-based
[7] = system: Aspergillus flavus ATCC 6275; test: Antifungal Activity (in Industrial Field), MIC; assay type: cell-based; conditions: ATCC6275, read-out: Minimal Inhibitory Conc. (MIC)
[8] = system: Aspergillus terreus PQMD 82 j; test: Antifungal Activity (in Industrial Field), MIC; assay type: cell-based; conditions: PQMD82J, read-out: Minimal Inhibitory Conc. (MIC)
[9] = system: Pullularia pullulans IAM F-24; test: Antifungal Activity (in Industrial Field), MIC; assay type: cell-based; conditions: IAMF24; Pullularia pullulans IAM F-24; read-out: Minimal Inhibitory Conc. (MIC)
[10] = system: Penicillium luteum ATCC 9644; test: Antifungal Activity (in Industrial Field), MIC; assay type: cell-based; conditions: Ascospirella lutea, ATCC9644, read-out: Minimal Inhibitory Conc. (MIC)
[11] = system: Rhizopus nigricans S.N. 32; test: Antifungal Activity (in Industrial Field), MIC; assay type: cell-based; conditions: Rhizopus stolonifer, read-out: Minimal Inhibitory Conc. (MIC)
[12] = system: Cryptococcus neoformans Cr-1; test: Antifungal Activity (in Medicinal Field), MIC; assay type: cell-based; conditions: CR1, read-out: Minimal Inhibitory Conc. (MIC)
[13] = system: Trichoderma T-1 ATCC 9645; test: Antifungal Activity (in Industrial Field), MIC; assay type: cell-based; conditions: ATCC9645, read-out: Minimal Inhibitory Conc. (MIC)
[14] = system: Aspergillus fumigatus IAM 2621; test: Antifungal Activity (in Industrial Field), MIC; assay type: cell-based; conditions: IAM2621, read-out: Minimal Inhibitory Conc. (MIC)
[15] = system: Aspergillus fumigatus Saito; test: Antifungal Activity (in Medicinal Field), MIC; assay type: cell-based; conditions: read-out: Minimal Inhibitory Conc. (MIC)
[16] = system: Colletotrichum lagenarium; test: Antibacterial and Antifungal Activities (in Agricultural Field), MIC; assay type: cell-based; conditions: Colletotrichum orbiculare, read-out: Minimal Inhibitory Conc. (MIC)
[17] = system: Gibberella fujikuroi; test: as above; assay type: cell-based; conditions: Fusarium fujikuroi, read-out: Minimal Inhibitory Conc. (MIC)
[18] = system: Fusarium oxysporum f. lycopersici; test: as above; assay type: cell-based; conditions: read-out: Minimal Inhibitory Conc. (MIC)
[19] = system: Cochliobolus miyabeanus; test: as above; assay type: cell-based; conditions: Bipolaris oryzae, read-out: Minimal Inhibitory Conc. (MIC)
[20] = system: Botrytis cinerea; test: as above; assay type: cell-based; conditions: read-out: Minimal Inhibitory Conc. (MIC)
[21] = system: Alternaria kikuchiana; test: as above; assay type: cell-based; conditions: read-out: Minimal Inhibitory Conc. (MIC)
[22] = system: Pellicularia filamentosa; test: as above; assay type: cell-based; conditions: read-out: Minimal Inhibitory Conc. (MIC)
[23] = system: Xanthomonas campestris pv. oryzae; test: microbe, parasite or virus in culture; assay type: cell-based; conditions: read-out: Minimal Inhibitory Conc. (MIC)
[24] = system: Glomerella cingulata; test: Antibacterial and Antifungal Activities (in Agricultural Field), MIC; assay type: cell-based; conditions: Colletotrichum gloeosporioides, read-out: Minimal Inhibitory Conc. (MIC)
[25] = system: Erwinia carotovora; test: as above; assay type: cell-based; conditions: Pectobacterium carotovorum, read-out: Minimal Inhibitory Conc. (MIC)
[26] = system: Corynebacterium michiganense; test: as above; assay type: cell-based; conditions: Clavibacter michiganensis, read-out: Minimal Inhibitory Conc. (MIC)
[27] = system: Pseudomonas syringae pv. tabaci; test: as above; assay type: cell-based; conditions: read-out: Minimal Inhibitory Conc. (MIC)
[28] = system: Phricularia oryzae; test: as above; assay type: cell-based; conditions: read-out: Minimal Inhibitory Conc. (MIC)
[29] = system: Diaporithe citri; test: as above; assay type: cell-based; conditions: read-out: Minimal Inhibitory Conc. (MIC)
[30] = system: Xanthomonas campestris pv. citri; test: as above; assay type: cell-based; conditions: read-out: Minimal Inhibitory Conc. (MIC)
[31] = system: Trichophyton mentagrophytes; test: Therapeutic experiment on trichophytosis in guinea pigs, visual observation; assay type: in vivo, guinea pigs (White Hartly-strain); conditions: 1% preparation, 0.25 ml once per day, 8 consecutive days
[32] = system: Trichophyton mentagrophytes; test: Reducing culture positive rate of skin slices from infected guinea pigs; assay type: in vivo, guinea pigs (White Hartly-strain); design: concentration or dose not given beside the values; conditions: after 8 days application, non-treated 100
[33] = Candida, GA24, read-out: Minimal Inhibitory Conc. (MIC)
[34] = Trichophyton, 530324, read-out: Minimal Inhibitory Conc. (MIC)
[35] = GA24, Candida alubicans GA-24, read-out: Minimal Inhibitory Conc. (MIC)
[36] = Trichophyton metagrophytes 530324, read-out: Minimal Inhibitory Conc. (MIC)

SMILES	MIC [1, 33] [mg/L]	MIC [2] [mg/L]	MIC [3] [mg/L]	MIC [4] [mg/L]	MIC [5] [mg/L]	MIC [6, 34] [mg/L]	MIC [7] [mg/L]	MIC [8] [mg/L]	MIC [9] [mg/L]	MIC [10] [mg/L]	MIC [11] [mg/L]	MIC [12] [mg/L]	MIC [13] [mg/L]	MIC [14] [mg/L]	MIC [15] [mg/L]	MIC [16] [mg/L]	MIC [17] [mg/L]	MIC [1, 35] [mg/L]	MIC [18] [mg/L]	MIC [19] [mg/L]	also measured
IC#CCn1cncn1 [1-(1'-iodopropyn-3'-yl)-1,2,4-triazole]	3.12 (≈ 13.4 µM)	0.78 (≈ 3.35 µM)	3.13 (≈ 13.4 µM)	6.25 (≈ 26.8 µM)	25 (≈ 107 µM)	1.56 (≈ 6.69 µM)	6.25 (≈ 26.8 µM)	0.39 (≈ 1.67 µM)	3.13 (≈ 13.4 µM)	3.13 (≈ 13.4 µM)	3.13 (≈ 13.4 µM)	0.78 (≈ 3.35 µM)	3.13 (≈ 13.4 µM)	50 (≈ 215 µM)	0.78 (≈ 3.35 µM)	–	–	–	–	–	–
O=[N+]([O-])c1cn(CC#CI)c(Cl)c1Cl [1-(1'-iodopropyn-3'-yl)-2,3-dichloro-4-nitropyrrole]	–	0.39 (≈ 1.13 µM)	6.25 (≈ 18.1 µM)	0.39 (≈ 1.13 µM)	1.56 (≈ 4.52 µM)	–	0.39 (≈ 1.13 µM)	0.39 (≈ 1.13 µM)	6.25 (≈ 18.1 µM)	0.78 (≈ 2.26 µM)	–	1.56 (≈ 4.52 µM)	3.12 (≈ 9.05 µM)	< 0.09	0.39 (≈ 1.13 µM)	1.56 (≈ 4.52 µM)	1.56 (≈ 4.52 µM)	0.78 (≈ 2.26 µM)	3.12 (≈ 9.05 µM)	12.5 (≈ 36.2 µM)	MIC [20]: 0.39 mg/L (≈ 1.13 µM); MIC [6, 36]: 0.09 mg/L (≈ 0.261 µM); MIC [21]: 0.78 mg/L (≈ 2.26 µM); MIC [22]: > 50 mg/L; MIC [23]: 0.39 mg/L (≈ 1.13 µM); MIC [24]: 0.19 mg/L (≈ 0.551 µM)
O=[N+]([O-])c1cc(Cl)n(CC#CI)c1 [1-(1'-iodopropyn-3'-yl)-2-chloro-4-nitropyrrole]	–	–	1.56 (≈ 5.02 µM)	0.78 (≈ 2.51 µM)	12.5 (≈ 40.3 µM)	–	0.39 (≈ 1.26 µM)	0.19 (≈ 0.612 µM)	1.56 (≈ 5.02 µM)	0.39 (≈ 1.26 µM)	–	–	3.12 (≈ 10 µM)	0.19 (≈ 0.612 µM)	–	–	–	–	–	–	–
O=[N+]([O-])c1ccn(CC#CI)c1 [1-(1'-iodopropyn-3'-yl)-3-nitropyrrole]	–	0.78 (≈ 2.83 µM)	–	–	–	–	–	–	–	–	–	0.09 (≈ 0.326 µM)	–	–	0.09 (≈ 0.326 µM)	3.12 (≈ 11.3 µM)	3.12 (≈ 11.3 µM)	0.78 (≈ 2.83 µM)	3.12 (≈ 11.3 µM)	6.25 (≈ 22.6 µM)	MIC [20]: 0.78 mg/L (≈ 2.83 µM); MIC [6, 36]: 0.19 mg/L (≈ 0.688 µM); MIC [21]: 1.56 mg/L (≈ 5.65 µM); MIC [22]: 50 mg/L (≈ 181 µM); MIC [23]: 0.39 mg/L (≈ 1.41 µM); MIC [24]: 0.78 mg/L (≈ 2.83 µM)
IC#CCn1cccn1 [1-(1'-iodopropyn-3'-yl)pyrazole]	3.12 (≈ 13.4 µM)	0.39 (≈ 1.68 µM)	3.13 (≈ 13.5 µM)	1.56 (≈ 6.72 µM)	12.5 (≈ 53.9 µM)	0.39 (≈ 1.68 µM)	1.56 (≈ 6.72 µM)	0.78 (≈ 3.36 µM)	3.13 (≈ 13.5 µM)	0.78 (≈ 3.36 µM)	1.56 (≈ 6.72 µM)	0.78 (≈ 3.36 µM)	3.13 (≈ 13.5 µM)	1.56 (≈ 6.72 µM)	0.78 (≈ 3.36 µM)	–	–	–	–	–	–
IC#CCn1cnnn1 [1-(1'-iodopropyn-3'-yl)tetrazole]	1.56 (≈ 6.67 µM)	0.78 (≈ 3.33 µM)	1.56 (≈ 6.67 µM)	3.13 (≈ 13.4 µM)	3.13 (≈ 13.4 µM)	0.78 (≈ 3.33 µM)	1.56 (≈ 6.67 µM)	0.2 (≈ 0.855 µM)	1.56 (≈ 6.67 µM)	1.56 (≈ 6.67 µM)	3.13 (≈ 13.4 µM)	0.39 (≈ 1.67 µM)	0.78 (≈ 3.33 µM)	12.5 (≈ 53.4 µM)	0.39 (≈ 1.67 µM)	–	–	–	–	–	–
O=[N+]([O-])c1ccn(CC(I)=C(I)I)c1 [1-(2',3',3'-triiodoallyl)-3-nitropyrrole]	–	0.39 (≈ 0.736 µM)	–	–	–	–	–	–	–	–	–	0.39 (≈ 0.736 µM)	–	–	0.09 (≈ 0.17 µM)	0.39 (≈ 0.736 µM)	0.39 (≈ 0.736 µM)	0.19 (≈ 0.359 µM)	0.78 (≈ 1.47 µM)	12.5 (≈ 23.6 µM)	MIC [20]: 0.19 mg/L (≈ 0.359 µM); MIC [6, 36]: 0.19 mg/L (≈ 0.359 µM); MIC [21]: 0.78 mg/L (≈ 1.47 µM); MIC [22]: 50 mg/L (≈ 94.4 µM); MIC [25]: 6.25 mg/L (≈ 11.8 µM); MIC [23]: 25 mg/L (≈ 47.2 µM); MIC [24]: 0.39 mg/L (≈ 0.736 µM); MIC [26]: 0.98 mg/L (≈ 1.85 µM); MIC [27]: 6.25 mg/L (≈ 11.8 µM); MIC [28]: 1.56 mg/L (≈ 2.94 µM); MIC [29]: 0.39 mg/L (≈ 0.736 µM); MIC [30]: 50 mg/L (≈ 94.4 µM); Therapeutic Effect: Desquamation [31]: effective; Therapeutic Effect: Thickening [31]: effective; Reducing Culture Positive Rate ([32]; 3 days culture): 16.7%; Reducing Culture Positive Rate ([32]; 5 days culture): 25.0%; Reducing Culture Positive Rate ([32]; 7 days culture): 33.3%
